The values below come from article PMC5685639, “A trehalose biosynthetic enzyme doubles as an osmotic stress sensor to regulate bacterial morphogenesis” (PLoS Genetics, 2017).

In this test the target is T1, OtsA (Arthrobacter alpinus, UniProt C7EZF1).
T1 construct: recombinant, expressed in and purified from E. coli; self-assembles into large networks
T1 sequence (C7EZF1 1-495): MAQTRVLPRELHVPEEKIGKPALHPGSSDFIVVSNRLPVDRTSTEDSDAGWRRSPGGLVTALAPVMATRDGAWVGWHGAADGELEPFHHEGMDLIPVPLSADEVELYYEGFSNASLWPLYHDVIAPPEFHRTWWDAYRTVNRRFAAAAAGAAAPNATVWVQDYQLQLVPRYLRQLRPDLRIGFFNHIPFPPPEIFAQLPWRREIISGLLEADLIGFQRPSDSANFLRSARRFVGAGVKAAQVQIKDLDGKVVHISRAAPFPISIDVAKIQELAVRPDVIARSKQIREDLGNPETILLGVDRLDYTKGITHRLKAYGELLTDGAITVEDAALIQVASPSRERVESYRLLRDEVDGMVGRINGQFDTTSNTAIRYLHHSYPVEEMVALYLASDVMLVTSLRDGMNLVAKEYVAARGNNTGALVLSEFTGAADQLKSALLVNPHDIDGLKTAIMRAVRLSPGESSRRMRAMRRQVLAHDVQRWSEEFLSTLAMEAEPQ
In words: dynamic light scattering, self-assembly promoted by T6P. The note with it: 10 uM OtsA, 20 mM Tris HCl pH 7.5, 1 mM MgCl2, 1 M urea, 20 °C; up to 500 uM T6P; T6P is also the enzyme product. Format: binding.

Turning to `O=P(O)(O)OC[C@H]1O[C@H](O[C@H]2O[C@H](CO)[C@@H](O)[C@H](O)[C@H]2O)[C@H](O)[C@@H](O)[C@@H]1O` [T6P, trehalose-6-phosphate], the “dynamic light scattering, self-assembly promoted by T6P” value is recorded as “increasing concentrations of this metabolite had a dramatic effect on promoting the rate of OtsA polymerization”.
